Results on 32 molecules are retold here after PMC7115580 (European Journal of Medicinal Chemistry, 2017).

For series [1], the system named is HeLa cells.
The test system of series [2] is human airway epithelial Calu-3 cells. The note with it: data not shown.
In a further series the target is hDHFR (Homo sapiens, UniProt P00374). The series is classed as biochemical. The note with it: Lineweaver-Burk plot at 3, 6 and 12 µM; substrate DHF.
The target in series [3] is wild type A/M2 proton channel (Influenza A virus, UniProt P0DOF5). The class given is biochemical. The settings on record: 100 μM; TEVC, Xenopus oocytes; data not shown.
Chain of wild type A/M2 proton channel (P0DOF5 whole entry, looked up): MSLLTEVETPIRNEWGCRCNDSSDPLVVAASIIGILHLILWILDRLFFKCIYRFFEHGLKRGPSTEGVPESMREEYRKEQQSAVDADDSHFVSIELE
For series [4] the following is noted: metabolites of proguanil ref 32; cited from earlier work.
For the next series, the system named is Reovirus-1. In words: organism not typed. The series is classed as cell-based. The settings on record: Vero, read-out: Antiviral activity: EC50, Reovirus-1.
In another series the test system is Punta Toro virus. In words: microbe, parasite or virus in culture. The class given is cell-based. The settings on record: Vero, read-out: Antiviral activity: EC50, Punta Toro virus.
Another series deals with Para-influenza-3 virus. Nature of the series: organism not typed. The class given is cell-based. The settings on record: Vero, read-out: Antiviral activity: EC50, Para-influenza-3 virus.
The test system of series [5] is HeLa cells. The source holds these as a separate data set.

Counter-ions that a name gives are not always drawn. Like-named read-outs stand apart in the source and are kept apart here.

The EC50 is the concentration giving half of the maximal effect.

Chain of hDHFR (P00374 whole entry): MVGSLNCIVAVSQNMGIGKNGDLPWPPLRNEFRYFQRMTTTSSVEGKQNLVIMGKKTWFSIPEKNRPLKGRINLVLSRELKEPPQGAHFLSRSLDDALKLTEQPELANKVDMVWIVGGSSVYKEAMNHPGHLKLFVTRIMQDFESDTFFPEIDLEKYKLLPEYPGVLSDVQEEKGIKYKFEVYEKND

As to `NC1=NC2(CCCC2)N(c2cccc(C(F)(F)F)c2)C(N)=N1` [Compound 22, 2,2-Cyclotetramethylene-4,6-diamino-1-(3-trifluoromethylphenyl)-1,2-dihydrotriazine hydrochloride], the “Cytotoxicity: MCC” value is not below 100 µM with HeLa cells [1] (HeLa cells, microscopy) and more than 100 µM with Vero cells (Vero cells, microscopy).
The like results for `CC1(C)N=C(N)N=C(N)N1c1ccc(Br)cc1` [Compound 6] were, in that order, more than 100 µM and more than 100 µM.
For the molecule `CC1(C)N=C(N)N=C(N)N1c1cccc(Cl)c1` [Compound 11], the “Cytotoxicity: MCC” value in the series on HeLa cells [1] (HeLa cells, microscopy) is more than 100 µM. In [2], the “Cytotoxicity MCC” value is more than 100 µM.
As for `COc1ccc(N2C(N)=NC(N)=NC2(C)C)cc1` [Compound 4], the “Cytotoxicity: MCC” value in the series on HeLa cells [1] (HeLa cells, microscopy) was more than 100 µM; in the series with Vero cells (Vero cells, microscopy) it was more than 100 µM.
Turning to `CCc1nc(N)nc(N)c1-c1ccc(Cl)cc1` [Compound 32, pyrimethamine, reference compound], the “Cytotoxicity: MCC” value in the series on HeLa cells [1] (HeLa cells, microscopy) was not below 100 µM. Further, in series [2], the “Cytotoxicity MCC” value was more than 100 µM.
Regarding `CC1(C)N=C(N)N=C(N)N1c1ccc(C(=O)O)cc1` [Compound 8], the “Cytotoxicity: MCC” value in the series on HeLa cells [1] (HeLa cells, microscopy) is more than 100 µM; in the series on Vero cells (Vero cells, microscopy), more than 100 µM.
With `CC1(C)N=C(N)N=C(N)N1c1cccc(F)c1` [Compound 12, 4,6-Diamino-2,2-dimethyl-1-(3-fluorophenyl)-1,2-dihydrotriazine hydrochloride], the “Cytotoxicity: MCC” value in the series on HeLa cells [1] (human) is not below 100 µM.
With `CC(C)C1(C)N=C(N)N=C(N)N1c1ccc(Cl)cc1` (stereo not drawn) [Compound 19], the “Cytotoxicity: MCC” value in the series with HeLa cells [1] (HeLa cells, microscopy) was more than 100 µM; with Vero cells (Vero cells, microscopy), more than 100 µM.
As for `NC1=NC2(CCCCC2)N(c2cccc(C(F)(F)F)c2)C(N)=N1` [Compound 25, 2,2-Cyclopentamethylene-4,6-diamino-1-(3-trifluoromethylphenyl)-1,2-dihydrotriazine hydrochloride], the “Cytotoxicity: MCC” value in the series on HeLa cells [1] (HeLa cells, microscopy) is not below 100 µM; in the series with Vero cells (Vero cells, microscopy) it was more than 100 µM. Further, the “Cytotoxicity MCC” value in series [2] is more than 100 µM.
On to `NC1=NC(c2ccccc2)N(c2ccc(Cl)cc2)C(N)=N1` (stereo not drawn) [Compound 28], for which the “Cytotoxicity: MCC” value in the series on Vero cells (Vero cells, microscopy) is more than 100 µM.
As to `CC1(C)N=C(N)N=C(N)N1c1ccc(Cl)cc1` [Compound 1, cycloguanil, reference compound], at hDHFR, the “Inhibition pattern towards the substrate” value was “competitive inhibition pattern”. In series [3], the “Inhibition of wild type M2 channel” value is reported as “neither of the three compounds significantly inhibited”. The “Cytotoxicity: MCC” value in the series on HeLa cells [1] (HeLa cells, microscopy) is more than 100 µM; in the series with Vero cells (Vero cells, microscopy), more than 100 µM. The “Cytotoxicity MCC” value in series [2] is more than 100 µM. The “Share of the total drug concentration in plasma” value in series [4] was “about 30%”.
In the case of `NC1=NC2(CCCCC2)N(c2cccc(Cl)c2)C(N)=N1` [Compound 24], the “Cytotoxicity: MCC” value in the series on HeLa cells [1] (HeLa cells, microscopy) was not below 100 µM; with Vero cells (Vero cells, microscopy), more than 100 µM.
The matching figures for `CCC1(C)N=C(N)N=C(N)N1c1ccc(Cl)cc1` (stereo not drawn) [Compound 18]: more than 100 µM and more than 100 µM.
As for `CCOC(=O)c1ccc(N2C(N)=NC(N)=NC2(C)C)cc1` [Compound 9], the “Cytotoxicity: MCC” value was more than 100 µM in the series on HeLa cells [1] (HeLa cells, microscopy) and more than 100 µM in the series with Vero cells (Vero cells, microscopy).
Regarding `[H]/N=C(\N/C(=N/[H])Nc1ccc(Cl)cc1)NC(C)C` [Compound 30, proguanil, reference compound], the “Cytotoxicity: MCC” value in the series on HeLa cells [1] (HeLa cells, microscopy) is more than 100 µM; with Vero cells (Vero cells, microscopy) it was 20 µM.
`COc1c(C)c2c(c(O)c1C/C=C(\C)CCC(=O)O)C(=O)OC2` [Mycophenolic acid]: the EC50 was 1.8 µM in the series with Reovirus-1 and 20 µM in the series with Punta Toro virus.
`CC1(C)N=C(N)N=C(N)N1c1ccc([N+](=O)[O-])cc1` [Compound 7]: the “Cytotoxicity: MCC” value was more than 100 µM with HeLa cells [1] (HeLa cells, microscopy) and more than 100 µM in the series on Vero cells (Vero cells, microscopy).
As to `NC(=O)c1ncn([C@@H]2O[C@H](CO)[C@@H](O)[C@H]2O)n1` [Ribavirin], the concentration for a half-maximal effect (EC50) in the series with Para-influenza-3 virus turned out to be 112 µM.
In the case of `NC1=NC2(CCCC2)N(c2ccc(Cl)cc2)C(N)=N1` [Compound 20], the “Cytotoxicity: MCC” value in the series on HeLa cells [1] (HeLa cells, microscopy) is more than 100 µM; in the series with Vero cells (Vero cells, microscopy), more than 100 µM.
As to `CC1(C)N=C(N)N=C(N)N1c1ccccc1` [Compound 2], the “Cytotoxicity: MCC” value is more than 100 µM in the series with HeLa cells [1] (HeLa cells, microscopy) and more than 100 µM in the series with Vero cells (Vero cells, microscopy).
For the molecule `CC1(C)N=C(N)N=C(N)N1c1cc(C(F)(F)F)cc(C(F)(F)F)c1` [Compound 17, 4,6-Diamino-2,2-dimethyl-1-(3,5-ditrifluoromethylphenyl)-1,2-dihydrotriazine hydrochloride], the “Cytotoxicity: MCC” value in the series with HeLa cells [1] (human) is not below 100 µM; in the series with Vero cells (African green monkey), more than 100 µM.
With `CC1(C)N=C(N)N=C(N)N1c1ccc(Cl)cc1Cl` [Compound 15], the “Cytotoxicity: MCC” value was more than 100 µM in the series with HeLa cells [1] (HeLa cells, microscopy) and more than 100 µM with Vero cells (Vero cells, microscopy).
As for `CC1(C)N=C(N)N=C(Nc2ccc(Cl)cc2)N1` [Compound 29], the “Cytotoxicity: MCC” value in the series on HeLa cells [1] (HeLa cells, microscopy) was more than 100 µM; with Vero cells (Vero cells, microscopy), more than 100 µM.
For the molecule `CC1(C)N=C(N)N=C(N)N1c1cccc(C(F)(F)F)c1` [Compound 14], the “Inhibition of wild type M2 channel” value in [3] is given as “neither of the three compounds significantly inhibited”. For the same molecule, the “Cytotoxicity: MCC” value in the series on HeLa cells [1] (HeLa cells, microscopy) was not below 100 µM. In addition, the “Cytotoxicity MCC” value in the series on HeLa cells [5] (dihydrofolic acid 1.0 μM), in the series with HeLa cells [5] (dihydrofolic acid 2.6 μM), with HeLa cells [5] (dihydrofolic acid 16 μM), with HeLa cells [5] (dihydrofolic acid 40 μM), in the series on HeLa cells [5] (dihydrofolic acid 400 μM) and with HeLa cells [5] (human) was 20 µM in each case. For the same molecule, the “Cytotoxicity MCC” value in the series with HeLa cells [5] (independent of whether dihydrofolic acid was present or not) was 20 µM; in series [2], more than 100 µM.
With `Cc1ccc(N2C(N)=NC(N)=NC2(C)C)cc1` [Compound 3], the “Cytotoxicity: MCC” value was more than 100 µM in the series on HeLa cells [1] (HeLa cells, microscopy) and more than 100 µM in the series with Vero cells (Vero cells, microscopy).
Regarding `N=C(N)NC(=N)Nc1ccc(Cl)cc1` [1-(4-chlorophenyl)biguanide], in [4], the “Share of the total drug concentration in plasma” value was approximately 23%.
Regarding `CC1(C)N=C(N)N=C(N)N1c1ccc(Cl)c(Cl)c1` [Compound 16], the “Inhibition of wild type M2 channel” value in series [3] is recorded as “neither of the three compounds significantly inhibited”. Moreover, the “Cytotoxicity: MCC” value in the series with HeLa cells [1] (HeLa cells, microscopy) was more than 100 µM. The “Cytotoxicity MCC” value in series [2] is more than 100 µM.
Regarding `CC1(C)N=C(N)N=C(N)N1c1cccc(Br)c1` [Compound 13], the “Cytotoxicity: MCC” value in the series on HeLa cells [1] (HeLa cells, microscopy) is not below 100 µM; in the series on Vero cells (Vero cells, microscopy) it was more than 100 µM. For the same molecule, in series [2], the “Cytotoxicity MCC” value was more than 100 µM.
Turning to `CC1(C)N=C(N)N=C(N)N1c1ccc(F)cc1` [Compound 5], the “Cytotoxicity: MCC” value is more than 100 µM in the series on HeLa cells [1] (HeLa cells, microscopy) and more than 100 µM in the series with Vero cells (Vero cells, microscopy).
For `CC1(C)N=C(N)N=C(N)N1c1ccccc1Cl` [Compound 10], the “Cytotoxicity: MCC” value with HeLa cells [1] (HeLa cells, microscopy) is more than 100 µM; with Vero cells (Vero cells, microscopy), more than 100 µM.
Take `NC1=NC2(CCCC2)N(c2cccc(Cl)c2)C(N)=N1` [Compound 21, 1-(3-Chlorophenyl)-2,2-cyclotetramethylene-4,6-diamino-1,2-dihydrotriazine hydrochloride]: the “Cytotoxicity: MCC” value in the series with HeLa cells [1] (HeLa cells, microscopy) is not below 100 µM; with Vero cells (Vero cells, microscopy), more than 100 µM.
On to `CCCC1N=C(N)N=C(N)N1c1ccc(Cl)cc1` (stereo not drawn) [Compound 27], for which the “Cytotoxicity: MCC” value in the series on HeLa cells [1] (HeLa cells, microscopy) was more than 100 µM; with Vero cells (Vero cells, microscopy), more than 100 µM.
